The values that follow come from patent publication US20040043992A1, “Meloxicam for alleviating organ injury during organ operation or transplantation” (Boehringer Ingelheim International GmbH, priority 2002, published 2004).

Like-named read-outs stand apart in the source and are kept apart here. Square brackets hold non-standard residues; d marks the D form. Peptide text beside a SMILES is read from it. Nle = CCCC[C@H](N)C(=O)O

In assay [1] the test system is ischemia/reperfusion injury of the liver. Briefly: in vivo warm ischemia (Pringle's maneuver) and reperfusion of the liver in rats. Set-up: species or system male Wistar rats. The settings on record: for Creatinine / GPT / LDH / TNF-alpha: 30 minutes warm ischemia of the liver, 60 minutes of reperfusion, GdCl3 10 mg/kg 24 hours prior. The procedure: In the following experiment, the ability of an in vivo treatment with meloxicam to reduce ischemia/reperfusion injury of the liver was assessed.
For this purpose, male Wistar rats (250 g to 280 g body weight) were anesthetized with intraperitoneal application of pentobarbital (50 mg/kg body weight) and atropine (0.05 mg). All animals were subjected to a 30 minutes warm ischemia of the liver (Pringle's maneuver) and 60 minutes of reperfusion after median lapatomtomy.
One group of animals received no additional treatment (Control group). Another group was given 1 mg/kg body weight meloxicam just prior to the operation (COX-2I group). A third group was given 10 mg/kg body weight gadolinium chloride (GdCl3) 24 hours prior to the operation (GdCl3 group). A fourth group was given 10 mg/kg body weight gadolinium chloride 24 hours prior to operation and 1 mg/kg body weight meloxicam just prior to the operation (GdCl3+COX-2I group). Gadolinium chloride provides for a selective depletion of the liver Kupffer cells.
To assess and compare the level of injury in all groups of animals, a measurement of the enzyme release of glutamate pyruvate transaminase (GPT) and lactate dehydrogenase (LDH) was measured as indicator of hepatocellular injury, and the release of creatinine and TNF-alpha as an indicator of inflammation. To quantify the cellular damage on a structural level, histochemistry was performed with HE staining as well as immunohistochemistry using the TUNEL assay to quantify the apoptotic changes of the livers.

For assay [2], the system named is livers of NHBDs (Non Heart Beating Donors). Briefly: ischemic in vitro preservation and reperfusion of livers of Non Heart Beating Donors. Set-up: species or system Wistar rat. The settings on record: meloxicam 4.6 mg/kg body weight added to HTK solution; 60 minutes warm ischemia, 24 hours at 4° C., 45 minutes of reperfusion. The procedure: A previous (unpublished) study was been performed by the inventors on the ischemic in vitro preservation of livers of NHBDs (Non Heart Beating Donors). The aim of this study was to test the ability of meloxicam to ameliorate the ischemia/reperfusion injury of these livers. The experiments were performed using a Wistar rat model. Cardiac arrest was induced in Wistar rats under anesthesia by phrenotomy. The livers were excised after 60 minutes of warm ischemia, flushed with 20 mL of Ringer's solution containing heparin and subsequently with 60 mL of Histidine-Tryptophane-Cetoglutarate (or HTK) solution and preserved for 24 hours at 4° C. In half of the experiments, meloxicam (4.6 mg/kg body weight) was added to the HTK solution. Reperfusion was carried out in vitro (3 mL/g/min) with oxygenated buffer at 37° C. After 45 minutes of reperfusion, portal venous pressure (PVP) was measured to evaluate vascular conductivity, the enzyme release of alanine aminotransferase (ALT) and […] (GLDH) was measured as indicator of hepatocellular injury, and the bile production and oxygen consumption (VO2) as parameter of functional recovery of the livers. To estimate the impact of oxygen free radicals, the production of malondialdehyde was measured in the hepatic effluent.

Assay [3] has as its system liver injuries after Pringle's maneuver. Conditions: cited from earlier work; for number of polymorphonuclear neutrophils, lower than in untreated animals: 1 mg/kg.
Assay [4] deals with warm ischemia/reperfusion injury (hepatic parenchymal injury). Conditions: pre- and post-ischemic administration; serum ALT, AST, LDH, HA; cited from earlier work.
Assay [5] has as its system injury associated with ischemia/reperfusion of the brain, liver, kidney, lung, intestine, heart, and pancreas. Conditions: administered 30 minutes prior to an hemorrhagic shock; cited from earlier work.
The test system of assay [6] is ischemia/reperfusion injury during organ operation or transplantation. Conditions: in vivo; cited from earlier work.
Setting [7] is: meloxicam 1 mg/kg just prior to operation.
The mark [8] stands for this setting: 1 mg/kg via the portal vein, 60 minutes warm ischemia.

In assay [1] (setting [7]), `Cc1cnc(NC(=O)C2=C(O)c3ccccc3S(=O)(=O)N2C)s1` [COX-2I, 4-hydroxy-2-methyl-N-(5-methyl-2-thiazolyl)-2H-1,2-benzothiazine-3-carboxamide-1,1-dioxide] came in with a Creatinine of 0.65 mg/dL, a GPT of 973 Units/liter, an LDH of 6765 Units/liter and a TNF-alpha of 3.5 pg/mL serum. In assay [1] (setting [7]), the “lower level of GPT compared to the untreated Control group” value was determined as 3 times, the “lower level of LDH compared to the untreated Control group” value was 4 times, the “lower level of TNF-alpha compared to the untreated Control group” value stood at 5 times and the “lower level of creatinine compared to the untreated Control group” value was found to be 2 times. The “necrotic and apoptotic changes of the liver (HE staining, TUNEL assay)” value in assay [1] (meloxicam treated groups, histochemistry) is reported as “less necrotic as well as less apoptotic changes”. In addition, in assay [1] (myeloperoxidase reaction (Hanker-Yates solution)), the “reduction of infiltration of MPO (myloperoxidase) positive cells into the liver after I/R” value is around 50%. Also, in assay [2], the “in vitro preservation of grafts from NHBDs” value was “improves the in vitro preservation of grafts from NHBDs” and the “production of free oxygen radicals during reperfusion (malondialdehyde in hepatic effluent)” value is recorded as “decreased the production of free oxygen radicals during reperfusion”.
As for `CC(=O)c1ccc(NS(C)(=O)=O)c(Oc2ccc(F)cc2F)c1` [FK3311, 4′-acetyl-2′-(2,4-difluorophenoxy)methanesulfonanilide], the “level of serum enzyme activity (GOT, GPT, LDH) relative to untreated animals” value in assay [3] (setting [8]) is “about half”. Also, the “time after reperfusion by which blood flow recovered to the pre-ischemic level” value in assay [3] (setting [8]) was at most 30 min. Further, the “number of polymorphonuclear neutrophils, lower than in untreated animals” value in assay [3] (1 hour after reperfusion) is “about 40%”; in assay [3] (6 hours after reperfusion), “about 25%”. The “protection against warm ischemia/reperfusion injury” value in assay [4] was “satisfactory protection”.
Regarding `[Cl][Gd]([Cl])[Cl]` [GdCl3, gadolinium chloride], in assay [1] (setting [7]), the Creatinine is reported as 0.94 mg/dL, the GPT is 1611 Units/liter, the LDH stood at 12100 Units/liter and the TNF-alpha is 8.05 pg/mL serum.
As to `CC(=N)NCCCC[C@H](N)C(=O)O.Cl.Cl` [LNIL, L-N^6-(L-iminoethyl)lysine dihydrochloride], the “injury associated with ischemia/reperfusion of organs” value in assay [5] was “may also contribute to a protective effect”.
For the compound `CC(=O)Oc1ccccc1C(=O)O` [aspirin], in assay [6], the “reduction of ischemia/reperfusion injury during organ operation or transplantation” value is recorded as “did not significantly reduce”.
`CCCC[C@@H](C=O)NC(=O)[C@H](CC(C)C)NC(=O)[C@H](CC(C)C)NC(C)=O` [calpain inhibitor I] (Ac-Leu-Leu-[Nle]-aldehyde): the “injury associated with ischemia/reperfusion of organs” value in assay [5] is “reduces the injury”.
As for `COc1ccc2c(c1)c(CC(=O)O)c(C)n2C(=O)c1ccc(Cl)cc1` [indomethacin], the “reduction of ischemia/reperfusion injury during organ operation or transplantation” value in assay [6] is reported as “did not significantly reduce”.
